According to patent US20230391871A1, “MONOAMINE OXIDASE BLOCKADE THERAPY FOR TREATING CANCER THROUGH REGULATING TUMOR ASSOCIATED MACROPHAGES (TAMS)” (THE REGENTS OF THE UNIVERSITY OF CALIFORNIA, priority 2020, published 2023):

Key:
[1] = test system: Maoa WT and Maoa KO BMDMs; test: Maoa WT and Maoa KO BMDM IL-4/IL-13 polarization with H2O2 or tyramine supplement; assay type: cell-based, mouse
Description: MAO-A breaks down monoamines and generates hydrogen peroxide (H2O2) as a byproduct, thereby increasing reactive oxygen species (ROS) levels in a TAM. b,c, Studying the in vivo ROS levels in TAMs isolated from Mao WT and Mao KO mice bearing B16-OVA tumours (n=4). (b) Experimental design. (c) FACS analyses of ROS levels in Maoa WT and Maoa KO TAMs at day 18. TAMs were gated as the CD45.2^+CD11b^+Ly6G^−Ly6C^−/lowF4/80^+ cells of total tumour-infiltrating immune cells (TIIs). d, FACS analyses of ROS levels in in vitro-cultured Maoa WT and Maoa KO BMDMs, […] IL-4/IL-13 polarization for 24 hours (n=4). NC, no cytokine-treated control BMDMs: IL-4/IL-13, IL-4/IL-13-polarized BMDMs. e-g, Studying the phenotype of IL-4/IL-13-polarized Maoa WT and Maoa KO BMDMs with or without H2O2 treatment (n=3). BMDMs were treated with H2O2 for 30 minutes prior to IL-4/IL-13 polarization for 24 hours. (e) FACS analyses of CD206 expression on BMDMs. (f,g) QPCR analyses of Chi313 (f) and Arg1 (g) mRNA expression in BMDMs. h-j, Studying the phenotype of IL-4/IL-13-polarized Maoa WT and Maoa KO BMDMs with or without tyramine supplement (n=3). BMDMs were treated with tyramine for 30 minutes prior to IL-4/IL-13 polarization for 24 hours. (h) FACS analyses of ROS levels in BMDMs. (i,j) QPCR analyses of Chi3/3 (i) and Arg1 (j) mRNA expression in BMDMs. k,l, Studying the in vivo Stat6 signaling in TAMs isolated from Mao WT and Mao KO mice bearing B16-OVA tumours (combined from 5 mice per group). (k) Experimental design. (l) Western blot analyses of Stat6 phosphorylation in TAMs at day 18. TAMs were FACS sorted as the DAPI^−CD45.2^+CD11b^+Ly6G^−Ly6C^−/lowF4/80^+ cells from total TIIs. m, Western blot analyses of JAK-Stat6 signaling in in vitro-cultured Maoa WT and Maoa KO BMDMs, with or without IL-4/IL-13 polarization and H2O2 treatment. BMDMs were treated with H2O2 for 30 minutes prior to IL-4/IL-13 stimulation for another 30 minutes. Representative of 3 experiments. All data are presented as the mean±SEM. ns, not significant, *P<0.05, **P<0.01, and ***P<0.001, by 2-way ANOVA (d-j) or by Student's t test (c).
[…] BMDMs (denoted as WT and KO, respectively) were treated with H2O2 for 30 minutes followed by IL-4/IL-13 stimulation for another 30 minutes. BMDMs were then collected for FACS analysis. N=4. a, FACS plots showing ROS levels in the indicated BMDMs. b, Quantification of A. Representative of 2 experiments. All data are presented as the mean±SEM. ns, not significant, ***P<0.001, by 2-way ANOVA (b).
(§1) To generate BMDMs, BM cells were collected from femurs and tibias of Maoa WT mice and Maoa KO mice, and were cultured in C10 medium containing with 20% of L929-conditional medium in a 10-cm dish (2×10^6 cells per ml: 12 ml per dish) for 6 days. At day 6, the resulting BMDMs were collected and reseeded in a 6-well plate (1×10^6 cells per ml: 2 ml per well) in C10 medium for 24 hours, in the presence or absence of recombinant murine IL-4 (10 ng/ml) (Peprotech, 200-04) and IL-13 (10 ng/ml) (Peprotech, 200-13) to induce BMDM immunosuppressive polarization.
In some experiments, H2O2 (100 μM) were added to the Maoa WT and Maoa KO BMDM polarization culture 30 minutes prior to adding recombinant murine IL-4 and IL-13. At 30 minutes after IL-4/IL-13 stimulation, BMDMs were collected for WB analysis: at 24 hours after IL-4/IL-13 stimulation, BMDMs were collected for flow cytometry and QPCR analysis.
In some experiments, tyramine (100 μM) (Sigma-Aldrich, T90344) were added to the Maoa WT and Maoa KO BMDM polarization culture 30 minutes prior to adding recombinant murine IL-4 and IL-13. At 24 hours after IL-4/IL-13 stimulation, BMDMs were collected for flow cytometry and QPCR analysis.

[2] = test system: wildtype BMDMs (bone marrow-derived macrophages); test: In vitro WT BMDM IL-4/IL-13-induced polarization culture with MAOI treatment; assay type: cell-based, mouse; conditions: IL-4/IL-13-stimulated WT BMDMs, 24 h
Procedure: (a) Experimental design. Wildtype BMDMs were stimulated with IL-4/IL-13 with or without MAOI treatment. MAOIs (monoamine oxidase inhibitors) studied were phenelzine (Phe: 20 μM), clorgyline (Clo: 20 μM), moclobemide (Moc: 200 μM), and pirlindole (Pir: 20 μM). NT, no MAOI treatment. (b) FACS analyses of ROS levels in BMDMs. (c) FACS analyses of CD206 expression on BMDMs. (d,e) QPCR analyses of Chi313 (d) and Arg1 (e) mRNA expression in BMDMs. f-j, Studying the TAM-related cancer immunotherapy potential of MAOI treatment in a B16-OVA melanoma syngeneic mouse tumour model (n=7-8). (f) Experimental design. B6 wildtype mice were treated with clodronate liposomes (Clod) to serve as TAM-depleted experimental mice, or treated with vehicle liposomes (Veh) to serve as TAM-intact control mice. Phe, phenelzine treatment: NT, no phenelzine treatment. (g) Tumour growth. (h) Tumour volume at day 18. (i) FACS analyses of CD206 expression on TAMs of TAM-intact experimental mice. (j) FACS analyses of intracellular Granzyme B production in tumour-infiltrating CD8^+ T cells of all experimental mice. k-o, Studying the cancer therapy potential of MAOI treatment in combination with anti-PD-1 treatment in the B16-OVA melanoma and MC38 colon cancer syngeneic mouse tumour models (n=5). (k) Experimental design. Tumour-bearing mice were treated with anti-PD-1 antibody (aPD-1) or isotype control (Iso), together with or without phenelzine (Phe) treatment. NT, no Phe treatment. (l) B16-OVA tumour growth. (m) B16-OVA tumour volume at day 18. (n) MC38 tumour growth. (o) MC38 tumour volume at day 27. Representative of 3 experiments. All data are presented as the mean±SEM. ns, not significant, *P<0.05, **P<0.01, and ***P<0.001, by I-way ANOVA (b-e, h, j, m, o) or by Student's t test (i).
as §1
In some experiments, MAOIs were added to the Maoa WT BMDM polarization culture 30 minutes prior to adding recombinant murine IL-4 and IL-13, to block MAO-A activity during BMDM polarization. MAOIs studied were phenelzine (Phe, 20 μM) (Sigma-Aldrich), clorgyline (Clo, 20 μM) (Sigma-Aldrich), moclobemide (Moc, 200 μM) (Sigma-Aldrich), and pirlindole (Pir, 20 μM) (R&D Systems). At 24 hours after IL-4/IL-13 stimulation, BMDMs were collected for analysis.
Cells were stained with surface marker antibodies, washed with PBS, then resuspended in pre-warmed PBS (1×10^6 cells/ml/tube) containing 1 μM CM-H2DCFDA (Thermo Fisher Scientific, C6827). After 15 minutes incubation at room temperature, cells were immediately washed with cold PBS followed by flow cytometry analysis. ROS levels were measured by oxidation of the CM-H2DCFDA probes that can be read out as the fluorescence intensity at the FITC/488 channel of a flow cytometer. Single cell RNA sequencing (scRNAseq) scRNASeq was used to analyze the gene expression profiles of TIIs. B16-OVA tumours were harvested from Maoa WT and Maoa KO mice to prepare TII suspensions (10 tumours were combined for each group). TII suspensions were then sorted using a FACSAria II flow cytometer to purify immune cells (gated as DAPI-CD45.2^+ cells). Sorted TIIs were immediately delivered to the Technology Center for Genomics & Bioinformatics (TCGB) facility at UCLA for library construction and sequencing.

[3] = IL-4/IL-13-stimulated Maoa WT and KO BMDMs, H2O2 100 μM, 24 h
[4] = MAOI 20 μM added 30 min before cytokines
[5] = Maoa KO BMDMs, tyramine 100 μM, 30 min before IL-4/IL-13, 24 h
[6] = Maoa WT BMDMs, tyramine 100 μM, 30 min before IL-4/IL-13, 24 h

## OO [H2O2, hydrogen peroxide]
[1]; IL-4/IL-13-stimulated Maoa WT and KO BMDMs, H2O2 100 μM, 30 min stimulation, to similar levels
  JAK-Stat6 signaling (JAK1, JAK2, JAK3, Stat6 phosphorylation, Western blot): increased
[1]; [3]
  Maoa WT vs KO difference in Arg1 expression: eliminated their differences
  Maoa WT vs KO difference in CD206 expression: eliminated their differences
  Maoa WT vs KO difference in Chi313 expression: eliminated their differences
[1]; IL-4/IL-13-stimulated Maoa WT and KO BMDMs, H2O2 100 μM, to similar levels
  intracellular ROS in BMDMs: elevated

## C#CCN(C)CCCOc1ccc(Cl)cc1Cl [clorgyline]
[2]; [4]
  ROS levels in BMDMs (FACS): efficiently reduced
[2]; MAOI 20 μM
  Arg1 mRNA expression in BMDMs (QPCR): decreased expression
  CD206 expression on BMDMs (FACS): decreased expression
  Chi313 mRNA expression in BMDMs (QPCR): decreased expression
  immunosuppressive polarization of BMDMs: suppressed

## O=C(NCCN1CCOCC1)c1ccc(Cl)cc1 [mocolobemide, moclobemide]
[2]; MAOI 200 μM added 30 min before cytokines
  ROS levels in BMDMs (FACS): efficiently reduced
[2]; MAOI 200 μM
  Arg1 mRNA expression in BMDMs (QPCR): decreased expression
  CD206 expression on BMDMs (FACS): decreased expression
  Chi313 mRNA expression in BMDMs (QPCR): decreased expression
  immunosuppressive polarization of BMDMs: suppressed

## NCCc1ccc(O)cc1 [tyramine]
[1]; [5]
  increase of ROS levels in BMDMs: not
  upregulation of Arg1 mRNA expression in BMDMs: not
  upregulation of Chi313 mRNA expression in BMDMs: not
[1]; [6]
  Arg1 mRNA expression in BMDMs: upregulated
  Chi313 mRNA expression in BMDMs: upregulated
  ROS levels in BMDMs: increased

## Cc1ccc2c(c1)c1c3n2CCNC3CCC1 (centres unmarked) [pirlindole]
[2]; [4]
  ROS levels in BMDMs (FACS): efficiently reduced
[2]; MAOI 20 μM
  Arg1 mRNA expression in BMDMs (QPCR): decreased expression
  CD206 expression on BMDMs (FACS): decreased expression
  Chi313 mRNA expression in BMDMs (QPCR): decreased expression
  immunosuppressive polarization of BMDMs: suppressed
